Source: patent US11685726B2, “Pharmaceutical compositions of 6-(2-(2H-tetrazol-5-yl)ethyl)-6-fluorodecahydroisoquinoline-3-carboxylic acid and ester derivatives thereof” (Sea Pharmaceuticals LLC, priority 2020, dated 2023)

Tested on: AMPA receptor
Assay: Whole cell patch-clamp recording of s-AMPA induced currents in pyramidal neurons of rat brain prefrontal cortex slices
Assay type: cell-based
Conditions: 20 μM s-AMPA, rat brain cortex slices
Description: Additionally biological activity of compounds as antagonists of AMPA receptors or NMDA receptors (also called ionotropic glutamate-gated ion channels) were conducted using ex vivo functional electrophysiological assays of pyramidal neurons in slices of rat brain prefrontal cortex. Effects of test compounds cf. reference compounds were studied by whole cell patch-clamp electrophysiology recordings of s-AMPA-induced currents or NMDA-induced currents, respectively, using rat brain slice prefrontal cortex (layer V) pyramidal neurons.
Male Sprague Dawley rats were supplied by Charles River Laboratories (Wilmington, Mass. USA) and were housed 4 per cage within a temperature (20.5-23.5° C.) and humidity (30-80%) controlled environment on a 12 hour light/dark cycle with access to food (Teklad Global Soy Protein, Cat. No. T.2920X10, Envigo, Indianapolis, Ind., USA) and water ad libitum. At 4-6 weeks of age rats were terminally anaesthetized using isofluorane [(1-chloro-2,2,2-trifluoroethyl difluoromethyl ether) supplied by Baxter Healthcare Corp, Deerfield, Ill., USA], and decapitated. The brain was removed and 300 μm thick coronal prefrontal cortex (PFC) or sagittal hippocampal slices were sectioned using a Vibratome microtome. After brain removal, and throughout slicing, the tissue was submerged in ice cold […] cerebrospinal fluid (aCSF). Once slices were cut, they were transferred to a beaker containing aCSF and left at room temperature for a minimum of 1 hour before commencing electrophysiological recordings. After this period, individual slices were transferred to a recording chamber continuously perfused with aCSF at a rate of 4-6 mL/min before commencing experiment protocols. aCSF composition (in mM): NaCl, 127; KCl, 1.9; KH2PO4, 1.2; CaCl2), 2.4; MgCl2, 1.3; NaHCO3, 26; D-glucose, 10; in water equilibrated with 95% Oxygen gas-5% CO2 gas (reagent suppliers listed below). Experiments investigating NMDA currents had aCSF supplemented with 10 μM glycine (reagents suppliers listed below). All experiments were conducted following protocols with the approval of an Institutional Animal Care and Use Committee (IACUC).
Whole cell patch-clamp recordings were performed from Layer V prefrontal cortex pyramidal neurons at room temperature using the ‘visualized’ version of the patch-clamp technique. […]
All test compound experiments were carried out in the voltage-clamp recording configuration of the whole cell patch-clamp technique and all recordings performed at a holding potential of −60 mV. Recordings were monitored on a Dell personal computer (PC) running Axon pClamp software (Molecular Devices, Sunnyvale, Calif., USA) and digitized at 10 kHz. […]

[1] = Tested at 1 pM (so in the source)

Structure (SMILES)	% inhibition +/- SEM of s-AMPA induced currents in neurons [1]	% inhibition +/- SEM of s-AMPA induced currents in neurons (Tested at 10 pM (so in the source))
O=C(O)[C@@H]1C[C@H]2C[C@@](F)(CCc3nnn[nH]3)CC[C@H]2CN1 [Compound 1, (3S,4aS,6S,8aR)-6-fluoro-6-[2-(1H-1,2,3,4-tetrazol-5-yl)ethyl]-decahydroisoquinoline-3-carboxylic acid]	55.6 ± 5.8 (n = 3) %	>90 (n = 1) %
O=C(O)[C@@H]1C[C@H]2CC(F)(CCc3nnn[nH]3)CC[C@H]2CN1 (stereo in doubt) [Compound 2, (3S,4aS,6R,8aR)-6-fluoro-6-[2-(1H-1,2,3,4-tetrazol-5-yl)ethyl]-decahydroisoquinoline-3-carboxylic acid]	21.4 ± 2.1 (n = 3) %	–
